Test results: patent publication US20050245399A1, “Pyrazole derivatives as herbicidal compositions containing them” (ISHIHARA SANGYO KAISHA, LTD., priority 2004, published 2005)

Experiments:
Assay type in all cases: in vivo
[1] = tested on: crabgrass (Digitaria sanguinalis L.): DIGSA; test: Test Example 1 pre-emergence herbicidal activity, DIGSA; conditions: Rate 63 g a.i./ha, visually observed 20th to 23rd day after application
Summary of the method: (§1)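 pots, upland field soil; sow; +1 d spray compound (WP or EC, a.i. at set dose, 500 L/ha water), pre-emergence; visual % growth control d20–23 (0 untreated, 100 complete kill).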

[2] = tested on: japanese bulrush (Scirpus juncoides: SCPJO); test: Test Example 3 water application herbicidal activity (paddy), SCPJO; conditions: 63 g a.i./ha, water application under submerged condition at 0.5 leaf stage, visually observed 14th day after application; 0 = untreated control, 100 = complete kill
Summary of the method: (§2)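 Submerged application in flooded paddy soil (3–4 cm water); weeds treated at 0.5-leaf stage, transplanted rice 4 d after transplanting. Scored visually as % growth control: weeds at 14 d, rice at 21 d.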

[3] = tested on: barnyardgrass (Echinochiloa oryzicola: ECHOR); test: Test Example 3 water application herbicidal activity (paddy), ECHOR; conditions: 63 g a.i./ha, water application under submerged condition at 0.5 leaf stage, visually observed 14th day after application; 0 = untreated control, 100 = complete kill
Summary of the method: as §2

[4] = tested on: rice (Oryza sativa L.): ORYSA; test: Test Example 1 pre-emergence herbicidal activity, ORYSA; conditions: Rate 63 g a.i./ha, visually observed 20th to 23rd day after application
Summary of the method: as §1

[5] = tested on: rice (Oryza sativa L.: ORYSA); test: Test Example 3 water application herbicidal activity (paddy), transplanted rice ORYSA; conditions: 63 g a.i./ha, water application 4th day after transplantation of 2 leaf stage rice, visually observed 21st day after application; 0 = untreated control, 100 = complete kill
Summary of the method: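 Rice at 2-leaf stage is transplanted into flooded puddled soil and treated by water application 4 days later, at a predetermined active-ingredient dose. Crop injury is rated visually as growth control (0–100%) 21 days after treatment.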

[6] = tested on: velvetleaf (Abutilon theophrasti): ABUTH; test: Test Example 1 pre-emergence herbicidal activity, ABUTH; conditions: Rate 63 g a.i./ha, visually observed 20th to 23rd day after application
Summary of the method: as §1

[7] = tested on: common cocklebur (Xanthium strumarium L.): XANST; test: Test Example 1 pre-emergence herbicidal activity, XANST; conditions: Rate 63 g a.i./ha, visually observed 20th to 23rd day after application
Description: Upland field soil was put into a 1/170,000 ha pot, and seeds of various plants {1. barnyardgrass (Echinochloa crus-galli L.): ECHCG, 2. crabgrass (Digitaria sanguinalis L.): DIGSA, 3. green foxtail (Setaria viridis L.): SETVI, 4. redroot pigweed (Amaranthus retroflexus L.): AMARE, 5. prickly sida (Sida spinosa L.): SEDSP, 6. velvetleaf (Abutilon theophrasti): ABUTH, 7. common cocklebur (Xanthium strumarium L.): XANST, 8. rice (Oryza sativa L.): ORYSA, 9. wheat (Triticum aestivum L.): TRZAX, 10. corn (Zea mays L.): ZEAMX, 11. soybean (Glycine max Merr.): GLXMA} were sown. Then, one day after the sowing, a wettable powder or emulsifiable concentrate having the compound of the present invention formulated in accordance with a usual formulation method, was weighed so that the active ingredient would be a predetermined amount and diluted with water in an amount of 500 L/ha. The herbicide adjusted was applied by a small size sprayer for preemergence treatment. On the 20th to 23rd day after the application of the herbicide, the growth of the respective plants was visually observed, and the herbicidal effects were evaluated by growth controlling degrees (%) ranging from 0 (equivalent to the untreated control) to 100 (complete kill), whereby the results shown in Table 4, were obtained. Compound Nos. in Table 4 correspond to Compound Nos. in Table 1 and 2 given hereinbefore.

[8] = tested on: redroot pigweed (Amaranthus retroflexus L.), AMARE; test: Test Example 2 post-emergence (foliage treatment) herbicidal activity, AMARE; conditions: 63 g a.i./ha
Summary of the method: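 Herbicide was applied to foliage of seedlings raised in upland field soil: redroot pigweed at 0.1-1.5 leaves, barnyardgrass at 1.1-2.1, crabgrass at 1.0-2.0, rice at 1.0-2. A predetermined active ingredient amount was carried in 500 L/ha water with 0.1% (v/v) spreader; control (%) was assessed by eye after 20-23 days.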

[9] = tested on: green foxtail (Setaria viridis L.): SETVI; test: Test Example 1 pre-emergence herbicidal activity, SETVI; conditions: Rate 63 g a.i./ha, visually observed 20th to 23rd day after application
Summary of the method: as §1

[10] = tested on: japanese ribbon wapato (Sagittaria pygmaea: SA GPY); test: Test Example 3 water application herbicidal activity (paddy), SAGPY; conditions: 63 g a.i./ha, water application under submerged condition, tubers planted, visually observed 14th day after application; 0 = untreated control, 100 = complete kill
Summary of the method: as §2

[11] = tested on: soybean (Glycine max Merr.): GLXMA; test: Test Example 1 pre-emergence herbicidal activity, GLXMA; conditions: Rate 63 g a.i./ha, visually observed 20th to 23rd day after application
Summary of the method: as §1

[12] = tested on: corn (Zea mays L.), ZEAMX; test: Test Example 2 post-emergence (foliage treatment) herbicidal activity, ZEAMX; conditions: 63 g a.i./ha
Summary of the method: (§3)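 A small sprayer delivered the diluted WP or EC formulation (500 L/ha water, 0.1% v/v spreader) over emerged seedlings in upland soil pots. Damage relative to untreated plants was graded visually from 0 to 100% three weeks or so later (days 20-23).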

[13] = tested on: wheat (Triticum aestivum L.), TRZAX; test: Test Example 2 post-emergence (foliage treatment) herbicidal activity, TRZAX; conditions: 63 g a.i./ha
Summary of the method: as §3

COc1c(Cl)cc(F)c(-c2nn(C)c(OC(F)F)c2Cl)c1N(C(=O)C=C(C)C)C(=O)C=C(C)C [Compound 1-11]
Pre-emergence Herbicidal Activity DIGSP (growth controlling degree) [1]: 40% | growth controlling degrees (%) SCPJO [2]: 40% | growth controlling degrees (%) ECHOR [3]: 100% | Pre-emergence Herbicidal Activity ORYSA (growth controlling degree) [4]: 40% | growth controlling degrees (%) ORYSA [5]: 35% | Pre-emergence Herbicidal Activity ABUTH (growth controlling degree) [6]: 100% | Pre-emergence Herbicidal Activity XANST (growth controlling degree) [7]: 30% | growth controlling degree, AMARE [8]: 100% | Pre-emergence Herbicidal Activity SETVI (growth controlling degree) [9]: 100% | growth controlling degrees (%) SAGPY [10]: 40% | Pre-emergence Herbicidal Activity GLXMA (growth controlling degree) [11]: 50% | growth controlling degree, ZEAMX [12]: 30% | growth controlling degree, TRZAX [13]: 20%

COc1c(Cl)cc(F)c(-c2nn(C)c(OC(F)F)c2Cl)c1NC1CCCC1 [Compound 1-60]
Pre-emergence Herbicidal Activity DIGSP (growth controlling degree) [1]: 10% | growth controlling degrees (%) SCPJO [2]: 60% | growth controlling degrees (%) ECHOR [3]: 100% | Pre-emergence Herbicidal Activity ORYSA (growth controlling degree) [4]: 0% | growth controlling degrees (%) ORYSA [5]: 30% | Pre-emergence Herbicidal Activity ABUTH (growth controlling degree) [6]: 30% | growth controlling degree, AMARE [8]: 100% | Pre-emergence Herbicidal Activity SETVI (growth controlling degree) [9]: 30% | growth controlling degrees (%) SAGPY [10]: 60% | Pre-emergence Herbicidal Activity GLXMA (growth controlling degree) [11]: 0% | growth controlling degree, ZEAMX [12]: 50% | growth controlling degree, TRZAX [13]: 40%

CNc1c(OC)c(Cl)cc(F)c1-c1nn(C)c(OC(F)F)c1Cl [Compound 1-58]
Pre-emergence Herbicidal Activity DIGSP (growth controlling degree) [1]: 100% | growth controlling degrees (%) SCPJO [2]: 100% | growth controlling degrees (%) ECHOR [3]: 100% | Pre-emergence Herbicidal Activity ORYSA (growth controlling degree) [4]: 60% | growth controlling degrees (%) ORYSA [5]: 70% | Pre-emergence Herbicidal Activity ABUTH (growth controlling degree) [6]: 95% | growth controlling degree, AMARE [8]: 100% | Pre-emergence Herbicidal Activity SETVI (growth controlling degree) [9]: 100% | growth controlling degrees (%) SAGPY [10]: 100% | Pre-emergence Herbicidal Activity GLXMA (growth controlling degree) [11]: 20% | growth controlling degree, ZEAMX [12]: 100% | growth controlling degree, TRZAX [13]: 60%

COc1c(Cl)cc(F)c(-c2nn(C)c(OC(F)F)c2Cl)c1NC(=O)C=C(C)C [Compound 1-9]
Pre-emergence Herbicidal Activity DIGSP (growth controlling degree) [1]: 98% | growth controlling degrees (%) SCPJO [2]: 100% | growth controlling degrees (%) ECHOR [3]: 100% | Pre-emergence Herbicidal Activity ORYSA (growth controlling degree) [4]: 80% | growth controlling degrees (%) ORYSA [5]: 30% | Pre-emergence Herbicidal Activity ABUTH (growth controlling degree) [6]: 100% | Pre-emergence Herbicidal Activity XANST (growth controlling degree) [7]: 70% | growth controlling degree, AMARE [8]: 100% | Pre-emergence Herbicidal Activity SETVI (growth controlling degree) [9]: 100% | growth controlling degrees (%) SAGPY [10]: 100% | Pre-emergence Herbicidal Activity GLXMA (growth controlling degree) [11]: 90% | growth controlling degree, ZEAMX [12]: 70% | growth controlling degree, TRZAX [13]: 40%

COc1c(Cl)cc(F)c(-c2nn(C)c(OC(F)F)c2Cl)c1N(C)C=O [Compound 1-6]
Pre-emergence Herbicidal Activity DIGSP (growth controlling degree) [1]: 100% | growth controlling degrees (%) SCPJO [2]: 60% | growth controlling degrees (%) ECHOR [3]: 90% | Pre-emergence Herbicidal Activity ORYSA (growth controlling degree) [4]: 20% | growth controlling degrees (%) ORYSA [5]: 50% | Pre-emergence Herbicidal Activity ABUTH (growth controlling degree) [6]: 50% | growth controlling degree, AMARE [8]: 100% | Pre-emergence Herbicidal Activity SETVI (growth controlling degree) [9]: 50% | growth controlling degrees (%) SAGPY [10]: 30% | Pre-emergence Herbicidal Activity GLXMA (growth controlling degree) [11]: 0% | growth controlling degree, ZEAMX [12]: 30% | growth controlling degree, TRZAX [13]: 30%
